Laboratory results taken from US7445921B2, “Transglycosylation method and protein having transglycosylation activity” (priority 2004, dated 2008).
No end group written: not given here.

Columns and labels:
[1] = system: recombinant endo-α-GalNAc-ase; settings: substance as sugar source 1.2 mM, TLC
Experimental: The reaction system for measurement of transglycosylation activity was carried out by using the sugar chain donor Galβ1-3GalNAcα1-pNP at a final concentration of 2 mM, the acceptor 1-alkanol at a final concentration of 15% (v/v) and the purified enzyme (recombinant endo-α-GalNAc-ase) at a final concentration of 6.8 units/L in a 50 mM potassium phosphate buffer, pH 7.0.

[2] = system: recombinant endo-α-GalNAc-ase; assay: Transglycosylation into polypeptide (HPLC, MALDI-TOF-MS); format: biochemical, Bifidobacterium longum JCM1217; settings: donor Galβ1-3GalNAcα1-pNP, sodium phosphate buffer pH 6, 37° C., one hour, HPLC product peak
Experimental: First, an enzymatic reaction of recombinant endo-α-GalNAc-ase purified in (7) was performed with Galβ1-3GalNAcα1-pNP as the sugar chain donor and peptide-T (see SEQ ID: 16), PAMP-12 (an amino acid sequence shown in SEQ ID: 17 with an amino group attached at C-end of the sequence) and bradykinin (see SEQ ID: 18) as the sugar chain acceptor.
That is, 10 μl of Galβ1-3GalNAcα1-pNP, 6 μl solution of each polypeptide as the acceptor and 1.5 μl of NaP (sodium phosphate) buffer (500 mM, pH 6) were mixed. The sugar chain donor, Galβ1-3GalNAcα1-pNP was used at a concentration of 10 mM, and for the peptide solution, each of 50 mM peptide-T, 50 mM bradykinin, and 10 mM PAMP-12 was used. A solution obtained by mixing was warmed up to 37° C., subsequently 2.5 μl of endo-α-GalNAc-ase (1.55 unit/ml) was added thereto, which was then incubated in a water bath at 37° C. for one hour. Subsequently, the enzyme was inactivated by boiling for 3 to 5 minutes.
Each reaction solution obtained in the aforementioned enzymatic reaction was applied to an HPLC analysis, and reaction products were analyzed and fractionated. […] UV (wavelength 214 nm) spectra were detected.
Detected results of each reaction solution for peptide-T, PAMP-12 and bradykinin are shown in FIGS. 5A, 5B and 5C, respectively.
The fractions fractionated by the aforementioned HPLC were analyzed by MALDI-TOF-MS. […]
Target sequence in this assay (as listed by the source): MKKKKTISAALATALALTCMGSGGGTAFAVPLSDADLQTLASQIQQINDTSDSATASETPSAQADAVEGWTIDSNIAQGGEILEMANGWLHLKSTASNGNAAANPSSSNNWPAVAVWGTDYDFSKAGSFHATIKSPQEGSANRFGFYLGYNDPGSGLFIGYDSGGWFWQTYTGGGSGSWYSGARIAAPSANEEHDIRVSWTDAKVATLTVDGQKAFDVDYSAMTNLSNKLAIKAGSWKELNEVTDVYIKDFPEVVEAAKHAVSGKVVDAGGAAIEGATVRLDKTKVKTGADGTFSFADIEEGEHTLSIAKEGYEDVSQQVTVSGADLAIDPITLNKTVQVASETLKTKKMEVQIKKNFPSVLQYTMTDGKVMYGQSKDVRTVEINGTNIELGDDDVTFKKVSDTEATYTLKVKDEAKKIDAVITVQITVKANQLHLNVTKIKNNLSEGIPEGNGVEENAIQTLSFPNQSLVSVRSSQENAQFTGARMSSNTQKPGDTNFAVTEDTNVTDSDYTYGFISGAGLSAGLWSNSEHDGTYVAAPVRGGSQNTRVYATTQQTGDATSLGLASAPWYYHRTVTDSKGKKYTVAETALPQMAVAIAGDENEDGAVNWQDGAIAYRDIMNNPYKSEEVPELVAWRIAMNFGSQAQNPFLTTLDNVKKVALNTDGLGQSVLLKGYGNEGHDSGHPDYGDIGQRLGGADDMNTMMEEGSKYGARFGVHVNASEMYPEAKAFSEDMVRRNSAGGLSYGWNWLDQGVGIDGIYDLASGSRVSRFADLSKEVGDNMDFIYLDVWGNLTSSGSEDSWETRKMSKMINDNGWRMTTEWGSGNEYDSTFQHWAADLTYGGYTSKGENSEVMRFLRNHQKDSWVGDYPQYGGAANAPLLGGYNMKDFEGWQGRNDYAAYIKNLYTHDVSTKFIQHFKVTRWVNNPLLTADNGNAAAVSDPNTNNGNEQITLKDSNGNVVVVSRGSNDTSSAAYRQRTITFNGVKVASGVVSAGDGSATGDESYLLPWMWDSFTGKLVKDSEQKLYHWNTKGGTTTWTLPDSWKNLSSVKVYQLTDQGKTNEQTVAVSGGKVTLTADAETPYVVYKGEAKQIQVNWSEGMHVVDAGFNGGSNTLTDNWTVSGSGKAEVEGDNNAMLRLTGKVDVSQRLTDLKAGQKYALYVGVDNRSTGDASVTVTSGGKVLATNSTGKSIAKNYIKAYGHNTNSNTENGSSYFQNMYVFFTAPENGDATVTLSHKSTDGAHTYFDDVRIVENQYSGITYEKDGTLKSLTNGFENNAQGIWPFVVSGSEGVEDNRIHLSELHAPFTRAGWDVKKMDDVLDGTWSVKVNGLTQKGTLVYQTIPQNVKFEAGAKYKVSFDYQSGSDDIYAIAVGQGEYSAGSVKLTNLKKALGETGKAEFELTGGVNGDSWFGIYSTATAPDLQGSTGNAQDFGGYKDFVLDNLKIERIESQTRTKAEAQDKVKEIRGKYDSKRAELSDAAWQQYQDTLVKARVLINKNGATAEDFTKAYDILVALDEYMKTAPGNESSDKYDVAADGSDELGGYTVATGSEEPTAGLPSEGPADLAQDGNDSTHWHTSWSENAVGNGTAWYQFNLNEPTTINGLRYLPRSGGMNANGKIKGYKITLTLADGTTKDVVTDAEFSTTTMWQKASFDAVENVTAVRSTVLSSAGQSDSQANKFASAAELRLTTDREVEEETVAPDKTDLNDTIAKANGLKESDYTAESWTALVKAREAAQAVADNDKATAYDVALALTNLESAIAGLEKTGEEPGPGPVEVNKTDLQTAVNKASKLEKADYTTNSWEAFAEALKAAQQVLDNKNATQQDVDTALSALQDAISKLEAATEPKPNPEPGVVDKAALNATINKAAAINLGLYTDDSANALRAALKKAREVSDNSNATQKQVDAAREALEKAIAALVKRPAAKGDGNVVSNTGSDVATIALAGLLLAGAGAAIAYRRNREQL

Row | Compound | Formation of product spot in reaction with methanol as acceptor (transglycosylation vs reverse hydrolysis) [1] | Transfer of disaccharide (Gal-GalNAc) to the peptide acceptor [2]
1 | CC(=O)N[C@H]1C(O)O[C@H](CO)[C@H](O)[C@@H]1O[C@@H]1O[C@H](CO)[C@H](O)[C@H](O)[C@H]1O (stereo partly drawn) [Galβ1-3GalNAc, galactosyl β1→3N-acetylgalactosamine] | not formed | –
2 | CC(=O)N[C@H]1[C@@H](Oc2ccc([N+](=O)[O-])cc2)O[C@H](CO)[C@H](O)[C@@H]1O[C@@H]1O[C@H](CO)[C@H](O)[C@H](O)[C@H]1O [Galβ1-3GalNAcα1-pNP, galactosyl β1→3N-acetylgalactosaminyl α1-p-nitrophenol, reference compound] | formed | –
3 | PAMP-12: amino acid sequence shown in SEQ ID: 17 with an amino group attached at C-end; sugar chain acceptor (FRKKWNKWALSR-NH2; listed as Homo sapiens) | – | disaccharide (Gal-GalNAc) had been transferred
